Values joined by “and” are separate entries in the source; they are usually repeats but may differ in a detail not shown here. Identical values can stand only once.
target: LRRK2 G2019S enzyme (Homo sapiens (Human), UniProt Q5S007, G2019S); experiment: LRRK2 G2019S TR-FRET biochemical assay (LRRKtide substrate); conditions: 134 μM ATP
Description: Detection Reaction Conditions • 1× TR-FRET dilution buffer • 10 mM EDTA • 2 nM antibody • 23° C. reaction temperature • 10 μL total reaction volume
Compounds were prepared by initially diluting to 1 mM with DMSO. 35 μL of reference compound solution, 35 μL of test compound solution, and 35 μL HPE were successively added to the source plate (384-well assay plate, Labcyte). The plates were centrifuged at 2500 rpm for 1 minute and sealed in foil. […] The assay plate was centrifuged at 2500 rpm for 1 minute, and sealed with foil.
To perform the enzyme reaction, 5 μL of LRRKtide substrate and kinase mixture in assay buffer was added to all wells of the assay plate. The plate was centrifuged to concentrate the mixture at the bottom of the wells. The assay plate was incubated at 23° C. for 20 minutes. Following incubation, 5 μL of 2× ATP in assay buffer was added to each well, and plates were centrifuged to concentrate the mixture at the bottom of the wells. The plate was incubated at 23° C. for 60 minutes.
To perform the detection of the reaction, EDTA completely mixed in TR-FRET dilution buffer was added to antibody reagent. 10 μL of detection reagent was added to all wells of each well of the assay plate and the plate was centrifuged to concentrate the mixture at the bottom of the wells. The plate was then incubated at 23° C. for 60 minutes.

LRRK2 G2019S enzyme, sequence (Q5S007 whole entry G2019S): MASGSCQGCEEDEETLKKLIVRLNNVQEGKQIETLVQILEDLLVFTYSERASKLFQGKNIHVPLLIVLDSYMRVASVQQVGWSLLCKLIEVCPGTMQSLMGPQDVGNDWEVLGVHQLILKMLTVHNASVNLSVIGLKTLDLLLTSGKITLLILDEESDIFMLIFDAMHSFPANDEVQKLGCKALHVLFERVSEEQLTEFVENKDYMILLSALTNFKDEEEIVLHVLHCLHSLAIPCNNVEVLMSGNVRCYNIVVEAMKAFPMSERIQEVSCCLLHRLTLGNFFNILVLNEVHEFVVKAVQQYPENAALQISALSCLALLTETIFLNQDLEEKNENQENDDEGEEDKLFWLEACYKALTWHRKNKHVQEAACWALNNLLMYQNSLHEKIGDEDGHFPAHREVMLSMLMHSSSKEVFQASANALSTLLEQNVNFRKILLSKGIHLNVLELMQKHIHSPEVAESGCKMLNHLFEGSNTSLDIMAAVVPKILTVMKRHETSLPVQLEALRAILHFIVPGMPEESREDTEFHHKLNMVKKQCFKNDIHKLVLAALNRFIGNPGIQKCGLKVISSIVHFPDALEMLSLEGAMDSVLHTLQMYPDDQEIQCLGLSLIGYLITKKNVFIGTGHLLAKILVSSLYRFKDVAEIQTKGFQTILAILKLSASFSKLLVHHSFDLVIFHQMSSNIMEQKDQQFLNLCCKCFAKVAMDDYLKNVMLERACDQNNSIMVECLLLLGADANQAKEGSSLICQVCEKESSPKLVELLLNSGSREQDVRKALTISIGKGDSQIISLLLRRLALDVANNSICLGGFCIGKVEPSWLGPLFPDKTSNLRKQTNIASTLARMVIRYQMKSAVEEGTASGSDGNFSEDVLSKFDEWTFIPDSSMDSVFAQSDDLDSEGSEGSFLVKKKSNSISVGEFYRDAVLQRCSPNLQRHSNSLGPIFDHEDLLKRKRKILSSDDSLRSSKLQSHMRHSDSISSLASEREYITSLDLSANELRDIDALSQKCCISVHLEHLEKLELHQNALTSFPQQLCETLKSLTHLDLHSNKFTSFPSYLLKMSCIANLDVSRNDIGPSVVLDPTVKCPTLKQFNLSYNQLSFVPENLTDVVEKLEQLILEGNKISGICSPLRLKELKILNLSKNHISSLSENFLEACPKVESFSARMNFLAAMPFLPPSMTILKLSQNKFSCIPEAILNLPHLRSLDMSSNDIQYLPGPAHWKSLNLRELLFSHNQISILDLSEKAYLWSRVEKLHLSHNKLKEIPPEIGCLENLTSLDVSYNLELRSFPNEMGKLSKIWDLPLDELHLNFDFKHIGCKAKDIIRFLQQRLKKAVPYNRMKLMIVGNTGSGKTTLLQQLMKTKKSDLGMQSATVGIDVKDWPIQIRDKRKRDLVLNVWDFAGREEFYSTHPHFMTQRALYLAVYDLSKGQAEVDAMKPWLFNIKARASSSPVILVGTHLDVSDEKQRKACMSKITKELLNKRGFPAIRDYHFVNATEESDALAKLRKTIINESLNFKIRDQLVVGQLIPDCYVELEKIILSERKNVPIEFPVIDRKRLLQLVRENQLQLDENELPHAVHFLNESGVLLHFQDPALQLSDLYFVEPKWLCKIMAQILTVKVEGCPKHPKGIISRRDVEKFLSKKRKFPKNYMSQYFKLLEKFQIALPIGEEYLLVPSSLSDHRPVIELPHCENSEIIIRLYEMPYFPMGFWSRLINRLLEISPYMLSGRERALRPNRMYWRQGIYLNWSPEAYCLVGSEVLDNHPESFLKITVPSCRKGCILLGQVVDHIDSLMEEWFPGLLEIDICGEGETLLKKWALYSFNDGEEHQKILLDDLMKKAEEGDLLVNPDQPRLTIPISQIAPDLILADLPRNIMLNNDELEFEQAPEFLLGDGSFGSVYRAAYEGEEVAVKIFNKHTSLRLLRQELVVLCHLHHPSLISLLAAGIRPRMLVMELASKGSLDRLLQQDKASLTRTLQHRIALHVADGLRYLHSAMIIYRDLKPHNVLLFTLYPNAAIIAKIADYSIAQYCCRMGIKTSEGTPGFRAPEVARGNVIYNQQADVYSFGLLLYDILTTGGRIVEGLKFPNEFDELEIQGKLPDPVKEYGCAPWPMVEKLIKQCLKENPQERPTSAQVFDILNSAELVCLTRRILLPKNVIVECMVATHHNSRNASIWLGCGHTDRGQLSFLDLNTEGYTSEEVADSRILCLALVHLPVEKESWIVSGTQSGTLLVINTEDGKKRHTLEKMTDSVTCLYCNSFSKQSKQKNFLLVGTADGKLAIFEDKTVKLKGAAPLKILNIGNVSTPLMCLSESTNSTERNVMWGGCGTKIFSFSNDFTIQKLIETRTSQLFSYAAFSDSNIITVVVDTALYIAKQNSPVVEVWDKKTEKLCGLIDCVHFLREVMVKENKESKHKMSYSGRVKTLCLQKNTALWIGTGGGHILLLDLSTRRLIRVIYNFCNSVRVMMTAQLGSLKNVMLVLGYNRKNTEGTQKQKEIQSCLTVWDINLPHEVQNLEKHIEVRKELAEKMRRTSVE

`CCNc1nc(Nc2ccnn2[C@H]2C[C@H](F)C2)ncc1C(F)(F)F` [Compound 190] and `CCNc1nc(Nc2ccnn2[C@H]2C[C@@H](O)C2)ncc1C(F)(F)F` [Compound 179] cannot be ordered by IC50: < 30 nM for the first, < 30 nM for the second.

`[2H]C([2H])([2H])c1nn(C(C#N)(C([2H])([2H])[2H])C([2H])([2H])[2H])cc1Nc1ncc(C(F)(F)F)c(NC)n1` [Compound 45] and `[2H]C([2H])([2H])Nc1nc(Nc2cn(C(C#N)(C([2H])([2H])[2H])C([2H])([2H])[2H])nc2C([2H])([2H])[2H])ncc1C(F)(F)F` [Compound 40] cannot be ordered by IC50: < 30 nM for the first, < 30 nM for the second.

`[2H]C([2H])([2H])n1nc(C2(C)CCOC2=O)cc1Nc1ncc(C(F)(F)F)c(NCC)n1` (stereo not shown) [Compound 173] and `[2H]C([2H])([2H])n1nc(C2(C)CCOC2=O)cc1Nc1ncc(C(F)(F)F)c(NC)n1` (stereo not shown) [Compound 175] cannot be ordered by IC50: < 30 nM for the first, < 30 nM for the second.

Compared with `COc1nc(Nc2cc(C(C)(C)n3nccn3)nn2C2CC2)ncc1Br` [Compound 157], `CNc1nc(Nc2cc(C(C)(C)n3nccn3)nn2C2CC2)ncc1C(F)(F)F` [Compound 77] is lower in IC50: 30 to 60 nM for the first, < 30 nM for the second. The second is the more potent here.

`CCN1CCC(F)(F)C(n2ncc(Nc3ncc(C(F)(F)F)c(NC)n3)c2Cl)C1` (single isomer, unassigned) [Compound 203] and `CNc1nc(Nc2cnn(C3CC4(COC4)C3)c2Cl)ncc1C(F)(F)F` [Compound 13] cannot be ordered by IC50: < 30 nM for the first, < 30 nM for the second.

Going from `CCNc1nc(Nc2cc(C#N)nn2C2CC2)ncc1C(F)(F)F` [Compound 133] to `CCNc1nc(Nc2cc(S(C)(=O)=O)nn2C2CC2)ncc1C(F)(F)F` [Compound 132], the IC50 falls from > 60 nM to < 30 nM.

First: [2H]C([2H])([2H])n1nc(C2CCOCC2)cc1Nc1ncc(C(F)(F)F)c(NCC)n1 [Compound 193]
Second: [2H]C([2H])([2H])n1nc([C@@]23C[C@@H]2COC3=O)cc1Nc1ncc(C(F)(F)F)c(NCC)n1 [Compound 184]
The IC50 of the first is higher: 30 to 60 nM for the first, < 30 nM for the second. The second is the more potent here.

`CNc1nc(Nc2cc(C3(C)CCOC3=O)nn2C2CC2)ncc1C(F)(F)F` (stereo not shown) [Compound 156] and `CCNc1nc(Nc2cc(C3(C)COC3)nn2C2CC2)ncc1C(F)(F)F` [Compound 145] cannot be ordered by IC50: < 30 nM for the first, < 30 nM for the second.

`COc1nc(Nc2cn(Cc3cc[nH]n3)nc2C2CC2)ncc1Br` [Compound 95] and `CCNc1nc(Nc2cn(S(C)(=O)=O)nc2C2CC2)ncc1Br` [Compound 111] cannot be ordered by IC50: < 30 nM for the first, < 30 nM for the second.

`COc1nc(Nc2cn(C3(C)CCNC3=O)nc2C)ncc1Br` (single isomer, unassigned) [Compound 64B] and `CCNc1nc(Nc2cn(C3(C)CCOC3=O)nc2C)ncc1C(F)(F)F` (single isomer, unassigned) [Compound 100] cannot be ordered by IC50: < 30 nM for the first, < 30 nM for the second.

`CCNc1nc(Nc2cc(C(C)(C)n3nccn3)nn2C2CCC2)ncc1C(F)(F)F` [Compound 127] and `CCNc1nc(Nc2cc(C(C)(C)n3nccn3)nn2C)ncc1C(F)(F)F` [Compound 57] cannot be ordered by IC50: < 30 nM for the first, < 30 nM for the second.

`N#C[C@@H]1CC1n1cc(Nc2ncc(C(F)(F)F)c(NCC(F)F)n2)c(C2CC2)n1` (single isomer, unassigned) [Compound 211] and `CCNc1nc(Nc2cn(C3C[C@@H]3C#N)nc2C2CC2)ncc1Br` (single isomer, unassigned) [Compound 214] cannot be ordered by IC50: < 30 nM for the first, < 30 nM for the second.

`[2H]C([2H])([2H])c1nn(C(C#N)(C([2H])([2H])[2H])C([2H])([2H])[2H])cc1Nc1ncc(C(F)(F)F)c(NC2CC2)n1` [Compound 48] and `[2H]C([2H])([2H])C(C#N)(n1cc(Nc2ncc(C(F)(F)F)c(NC)n2)c(C)n1)C([2H])([2H])[2H]` [Compound 80] cannot be ordered by IC50: < 30 nM for the first, < 30 nM for the second.

Compared with `CNc1nc(Nc2cnn(C3CCCC3(C)O)c2C)ncc1C(F)(F)F` (single isomer, unassigned) [Compound 30], `CCNc1nc(Nc2cnn(C3CNCCC3(F)F)c2C)ncc1C(F)(F)F` (single isomer, unassigned) [Compound 200] is lower in IC50: 30 to 60 nM for the first, < 30 nM for the second. The second is the more potent here.

First: CCNc1nc(Nc2ccnn2[C@H]2C[C@@H](n3ccnn3)C2)ncc1C(F)(F)F [Compound 189]
Second: CCNc1nc(Nc2cnn3c2CC(n2nccn2)C3)ncc1C(F)(F)F (single isomer, unassigned) [Compound 54A]
The IC50 of the first is higher: 30 to 60 nM for the first, < 30 nM for the second.

`CCNc1nc(Nc2cn(C3(C)CCCC3=O)nc2C)ncc1C(F)(F)F` (stereo not shown) [Compound 194, 2-[4-[[4-(ethylamino)-5-(trifluoromethyl)pyrimidin-2-yl]amino]-3-methyl-pyrazol-1-yl]-2-methyl-cyclopentanone] and `CCNc1nc(Nc2cn(C3(CF)CCOC3=O)nc2C)ncc1C(F)(F)F` (single isomer, unassigned) [Compound 216] cannot be ordered by IC50: < 30 nM for the first, < 30 nM for the second.

Compared with `CCNc1nc(Nc2cc(N3CCCC3=O)nn2C2CC2)ncc1Br` [Compound 158], `CCNc1nc(Nc2cc(CN3CCCC3=O)nn2C2CC2)ncc1C(F)(F)F` [Compound 149] is higher in IC50: < 30 nM for the first, 30 to 60 nM for the second. The first is the more potent here.

Going from `CCNc1nc(Nc2cc(-c3ncoc3C)nn2C2CC2)ncc1C(F)(F)F` [Compound 142] to `CCNc1nc(Nc2cc(C3(C)CCn4ccnc43)nn2C2CC2)ncc1C(F)(F)F` (stereo not shown) [Compound 166], the IC50 rises from < 30 nM to > 60 nM.

`CNc1nc(Nc2cnn(CC34CC(C#N)(C3)C4)c2C)ncc1C(F)(F)F` [Compound 7] and `CCNc1nc(Nc2cnn3c2CC(F)C3)ncc1C(F)(F)F` (stereo not shown) [Compound 50] cannot be ordered by IC50: < 30 nM for the first, < 30 nM for the second.

`CNc1nc(Nc2cc(C(C)(C)c3ncccn3)nn2C2CC2)ncc1C(F)(F)F` [Compound 128] and `[2H]C([2H])([2H])n1nc(C(C)(C)n2cccn2)cc1Nc1ncc(C(F)(F)F)c(NC2CC2)n1` [Compound 71] cannot be ordered by IC50: < 30 nM for the first, < 30 nM for the second.

`CNc1nc(Nc2cn(C3(C)CCOC3=O)nc2C2CC2)ncc1C(F)(F)F` (single isomer, unassigned) [Compound 113] and `CCNc1nc(Nc2cn(C3(C)CCOC3=O)nc2C2CC2)ncc1Br` (single isomer, unassigned) [Compound 115] cannot be ordered by IC50: < 30 nM for the first, < 30 nM for the second.

`[2H]C([2H])([2H])N1CCC(n2cc(Nc3ncc(C(F)(F)F)c(NCC)n3)c(C)n2)(C([2H])([2H])[2H])C1=O` (single isomer, unassigned) [Compound 24] and `CCNc1nc(Nc2cn(C3(C)CCOC3=O)nc2Cl)ncc1C(F)(F)F` (single isomer, unassigned) [Compound 117] cannot be ordered by IC50: < 30 nM for the first, < 30 nM for the second.

`[2H]C([2H])([2H])Nc1nc(Nc2cn(C(C)(C)C#N)nc2C)ncc1C(F)(F)F` [Compound 67] and `[2H]C([2H])([2H])c1nn(C(C)(C)C#N)cc1Nc1ncc(C(F)(F)F)c(NC)n1` [Compound 62] cannot be ordered by IC50: < 30 nM for the first, < 30 nM for the second.

`CCNc1nc(Nc2cn(C(C)(C)c3ccn(C)n3)nc2C)ncc1C(F)(F)F` [Compound 18] and `CCNc1nc(Nc2cn(C(C)(C)c3nncs3)nc2C)ncc1C(F)(F)F` [Compound 85] cannot be ordered by IC50: < 30 nM for the first, < 30 nM for the second.

`Cc1nn(C(C)(C)C#N)cc1Nc1ncc(Br)c(NC2CC2)n1` [Compound 66] and `COc1nc(Nc2cn(C3(C)CCNC3=O)nc2C)ncc1Br` (single isomer, unassigned) [Compound 64A] cannot be ordered by IC50: < 30 nM for the first, < 30 nM for the second.

For `CCNc1nc(Nc2cn(C3CS(=O)(=O)C3)nc2C2CC2)ncc1C(F)(F)F` [Compound 110, N2-[3-cyclopropyl-1-(1,1-dioxothietan-3-yl)pyrazol-4-yl]-N4-ethyl-5-(trifluoromethyl)pyrimidine-2,4-diamine], the IC50 was < 30 nM.

For `CCNc1nc(Nc2cnn([C@H]3C[C@@H](C#N)C3)c2C)ncc1C(F)(F)F` [Compound 27], the IC50 was < 30 nM and 3.41 nM.

— patent publication US9932325B2 (Denali Therapeutics Inc., priority 2015, dated 2018)
